Tested on: arteriovenous shunt model in rats
Experiment: Antithrombotic effect in an arteriovenous shunt model in rats
Assay type: in vivo
Protocol: a) Determination of the Antithrombotic Effect in an Arteriovenous Shunt Model in Rats Fasting male rats (strain: HSD CPB:WU) were anesthetized by intraperitoneal administration of a Rompun/Ketavet solution (12 mg/kg/50 mg/kg). Thrombi were generated in an arteriovenous shunt in which a thrombogenic thread was secured, based on the method described by P C Wong et al. (Wong […], Nguan O, Watson […]. […] For this purpose, the left jugular vein and the right carotid artery were exposed. An 8 cm-long polyethylene catheter (PE60, Becton-Dickinson), followed by a 6 cm-long Tygon tube (R-3606, ID 3.2 mm, Kronlab), which contained a roughened, thrombogenic nylon thread (60×0.26 mm, […]) made into a double loop, was secured in the artery. A 2 cm-long polyethylene catheter (PE60, Becton-Dickinson) was secured in the jugular vein and connected via a 6 cm-long polyethylene catheter (PE160, Becton-Dickinson) to the Tygon tube. The tubes were filled with physiological saline solution before the shunt was opened. The extracorporeal circulation was maintained for 15 minutes. The shunt was then removed, and the nylon thread with the thrombus was immediately weighed. The empty weight of nylon thread has been determined before the start of the test. The FXa inhibitor (such as rivaroxaban) was administered to the animals intravenously, and acetylsalicylic acid (ASA) and/or ADP receptor antagonist (such as clopidogrel) was administered orally by gavage before setting up the extracorporeal circulation.

[1] = doses [mg/kg]: Example 44 0.01 iv, Clopi + ASA 1 po + 3 po, triple 0.01 iv + 1 po + 3 po
[2] = doses [mg/kg]: Example 44 0.03 iv, Clopi + ASA 1 po + 3 po, triple 0.03 iv + 1 po + 3 po

O=C(NC[C@H]1CN(c2ccc(N3CCOCC3=O)cc2)C(=O)O1)c1ccc(Cl)s1 [Example 44, 5-Chloro-N-({(5S)-2-oxo-3-[4-(3-oxo-4-morpholinyl)phenyl]-1,3-oxazolidin-5-yl}methyl)-2-thiophencarboxamide]
Antithrombotic effect (assessment in words) [1]: No effect | Thrombus reduction [%] [1]: 18% | Antithrombotic effect (assessment in words) [2]: No effect | Thrombus weight reduction [%] [2]: 20% | Antithrombotic effect, summary of Table 1 in words (doses of Table 1): ineffective

From US20160303138A1, “Combination Therapy Of Substituted Oxazolidinones” (Bayer Intellectual Property GMBH, priority 2006, published 2016)
